Reference: US11701368B2 (EYE CO PTY LTD, priority 2018, dated 2023)
Where two headings read alike, the source gives them in different places.

Key:
[1] = test system: rat model of dry AMD; conditions: compared with TA; Provis et al.; cited from earlier work
[2] = test system: New Zealand albino rabbit eyes; conditions: cited from earlier work; for ERG in the other groups / other eyes: intravitreal 400 μg, 1 mg, 2 mg/0.1 ml and remaining eyes; for time by which all aggregates disappeared: intravitreal
[3] = test system: New Zealand albino rabbit eyes; experiment: Intravitreal toxicology of fludrocortisone acetate in rabbits; conditions: every 4 weeks; based on difference in vitreous volume between man and rabbit
Experimental: (§1) All animals were examined before and after injection using the indirect ophthalmoscope and slit-lamp biomicroscopy. Electroretinography (ERG) was performed on all animals before intravitreal injection and two weeks after injection. The animals were re-examined at this time by indirect ophthalmoscopy and slit-lamp biomicroscopy and were euthanized. The eyes were enucleated and examined with light microscopy.
(§2) Surgeries were performed on the eyes of 25 New Zealand white rabbits. […] The control eyes received 0.1 ml of sterile BSS. All animals were examined before and after injection using indirect ophthalmoscope and slit-lamp biomicroscopy. Electroretinography (ERG) was performed on all animals prior to intravitreal injection and two weeks after injection. The animals were re-examined at this time by indirect ophthalmoscope and slit-lamp biomicroscopy and were euthanized. Their eyes were enucleated and examined with light microscopy.

[4] = molecular target: T1, glucocorticoid receptor (Homo sapiens, UniProt P04150); conditions: relative to cortisol; cited from earlier work
T1 sequence (P04150 1-777): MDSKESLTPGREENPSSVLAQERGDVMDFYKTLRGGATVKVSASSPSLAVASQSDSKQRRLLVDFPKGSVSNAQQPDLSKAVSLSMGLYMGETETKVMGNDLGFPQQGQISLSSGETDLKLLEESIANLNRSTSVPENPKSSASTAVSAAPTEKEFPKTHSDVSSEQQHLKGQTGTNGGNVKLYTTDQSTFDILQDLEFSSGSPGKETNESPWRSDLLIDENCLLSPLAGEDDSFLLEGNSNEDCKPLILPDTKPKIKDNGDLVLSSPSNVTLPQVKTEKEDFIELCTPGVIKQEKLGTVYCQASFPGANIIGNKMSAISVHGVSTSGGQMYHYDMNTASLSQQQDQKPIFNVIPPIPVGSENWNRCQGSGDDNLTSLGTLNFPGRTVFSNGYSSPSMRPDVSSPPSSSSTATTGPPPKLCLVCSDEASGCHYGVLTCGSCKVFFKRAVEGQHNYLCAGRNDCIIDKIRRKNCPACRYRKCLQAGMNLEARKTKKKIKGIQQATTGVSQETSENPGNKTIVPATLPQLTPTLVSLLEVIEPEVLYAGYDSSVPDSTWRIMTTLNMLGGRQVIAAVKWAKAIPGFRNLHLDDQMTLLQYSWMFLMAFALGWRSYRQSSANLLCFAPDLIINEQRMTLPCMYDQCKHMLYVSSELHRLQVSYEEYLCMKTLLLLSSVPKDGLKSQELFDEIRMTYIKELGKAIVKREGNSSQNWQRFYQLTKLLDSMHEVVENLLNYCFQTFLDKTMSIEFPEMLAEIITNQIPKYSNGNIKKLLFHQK

[5] = molecular target: T2, mineralocorticoid receptor (Homo sapiens, UniProt P08235); experiment: Mineralocorticoid receptor activity (MR potency) of corticosterones; conditions: relative potency, hydrocortisone (cortisol) = 1
T2 sequence (P08235 1-984): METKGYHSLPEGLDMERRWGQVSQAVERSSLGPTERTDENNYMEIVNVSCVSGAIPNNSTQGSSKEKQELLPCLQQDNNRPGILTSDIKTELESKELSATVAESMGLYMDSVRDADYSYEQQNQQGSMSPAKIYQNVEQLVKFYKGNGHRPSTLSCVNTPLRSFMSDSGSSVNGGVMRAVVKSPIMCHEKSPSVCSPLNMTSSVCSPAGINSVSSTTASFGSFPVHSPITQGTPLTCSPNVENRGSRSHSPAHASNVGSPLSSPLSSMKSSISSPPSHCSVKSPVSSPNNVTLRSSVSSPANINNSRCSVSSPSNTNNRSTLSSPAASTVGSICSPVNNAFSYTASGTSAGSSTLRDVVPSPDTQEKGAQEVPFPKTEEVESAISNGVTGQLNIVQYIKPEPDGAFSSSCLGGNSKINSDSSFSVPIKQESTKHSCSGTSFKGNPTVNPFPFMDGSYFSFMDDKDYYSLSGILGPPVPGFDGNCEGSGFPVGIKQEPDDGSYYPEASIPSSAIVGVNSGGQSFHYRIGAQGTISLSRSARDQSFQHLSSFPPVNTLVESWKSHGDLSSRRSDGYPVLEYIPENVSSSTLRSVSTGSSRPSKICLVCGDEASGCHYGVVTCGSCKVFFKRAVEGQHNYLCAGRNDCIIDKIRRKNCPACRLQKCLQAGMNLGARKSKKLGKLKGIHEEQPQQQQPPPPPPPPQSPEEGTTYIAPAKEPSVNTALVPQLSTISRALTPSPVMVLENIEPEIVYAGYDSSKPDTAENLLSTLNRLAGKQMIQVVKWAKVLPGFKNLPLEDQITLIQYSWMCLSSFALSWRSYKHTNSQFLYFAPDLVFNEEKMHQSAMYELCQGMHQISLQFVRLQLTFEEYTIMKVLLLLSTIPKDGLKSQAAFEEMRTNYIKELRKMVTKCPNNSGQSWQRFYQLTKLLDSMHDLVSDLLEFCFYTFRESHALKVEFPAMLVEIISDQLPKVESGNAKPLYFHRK

[6] = test system: New Zealand albino rabbit eyes; conditions: in vivo
Experimental: as §1, §2

[7] = molecular target: T2, mineralocorticoid receptor; conditions: relative to cortisol; cited from earlier work
[8] = physchem
Text: FIG. 1: Solubility enhancement for MR compounds and TA in saline with addition of hydroxy propyl β-cyclodextrin (data are mean±sd, n=3). Top: FLU and TA; Bottom: 11-DC; DCS and DCSA.

[9] = Stability of drug aqueous solutions under autoclave conditions; assay type: physicochemical; conditions: saturated solution, 121° C./30 min
Text: Preferably, the study materials are sterile, at least to a large degree for preclinical studies. In the absence of a facility for complete aseptic manufacture, in order to sterilize the suspensions there are two possible approaches foreseen—autoclaving the final suspensions in ‘vial’, or gamma sterilization.

[10] = Batch production: pH (RGA40/3); assay type: physicochemical; conditions: specification 6.0-8.0
[11] = Stability of dry drug powders under gamma irradiation; assay type: physicochemical; conditions: 25 kGy
Text: The poor stability of most drugs under either autoclave or gamma irradiation when in contact with aqueous diluent led to a further set of stability studies to test the effect of gamma irradiation on the dry drug powders, with a view to providing the study materials as sterile powders for reconstitution immediately prior to administration.

[12] = Stability of drug aqueous solutions under gamma irradiation; assay type: physicochemical; conditions: saturated aqueous solution, ~25 kGy at ambient temperature
Experimental: Preferably, the study materials are sterile, at least to a large degree for preclinical studies. In the absence of a facility for complete aseptic manufacture, in order to sterilize the suspensions there are two possible approaches foreseen—autoclaving the final suspensions in ‘vial’, or gamma sterilization. Consequently, in order to initially test the resistance of the drug to degradation in the ‘wet’ environment, drug in saturated solutions were prepared as for the storage stability studies above and subjected to autoclave conditions (121° C./30 min) or gamma irradiation (˜25 kGy at ambient temperature).
Gamma irradiation was conducted at a firm in Melbourne (Steritech; 160 South Gippsland Hwy, Dandenong Sth) and QC certificates provided verifying dose of gamma irradiation received. The samples were exposed to 25 kGy radiation, which severely discoloured the vials, in long term this method may be very suitable when an appropriate glass container, resistant to gamma rays, is used for sample preparation.

[13] = molecular target: T1, glucocorticoid receptor; experiment: Glucocorticoid receptor activity (GR potency) of corticosterones; conditions: relative potency, hydrocortisone (cortisol) = 1
[14] = Particle sizing by laser light scattering; assay type: physicochemical; conditions: as received powder
[15] = Batch production: particle size (RGA40/2); assay type: physicochemical; conditions: for Particle Size D(0.5): specification <20; for Particle Size D(0.9): specification <30
[16] = Batch production: Av drug content per vial (RGA40/1); assay type: physicochemical; conditions: batch after freeze drying and gamma sterilization; specification 20.0 ± 2.0 mg
[17] = Drug storage stability in saline (accelerated stability trial)
Text: Consequently it was felt to be important to characterise the drug stability over time in aqueous solution as an indicator of likely issues with drug content and/or degradation products in the suspensions on storage.

CC(=O)OCC(=O)[C@@]1(O)CC[C@H]2[C@@H]3CCC4=CC(=O)CC[C@]4(C)[C@@]3(F)[C@@H](O)C[C@@]21C [Fludrocortisone acetate, 9-α-Fiuoro-11β. 17α, 21-trihydroxy-4-pregnene-3, 20 dione acetate]
preventing cell death, macrophage recruitment, preserving a- and b-wave ERG amplitude [1]: superior to TA
histological examination of retinal sections (light microscopy) ([2]; 400 μg to 4 mg/0.1 ml): no evidence of toxicity or vacuolization except for one eye in the 4 mg group
IOP ([2]; all groups): normal
ERG in the other groups / other eyes ([2]; two weeks after injection): normal ERG
ERG in the other groups / other eyes ([2]; two weeks after injection, listed as FCA): no other problems of reductions in ERG
eyes with intravitreal haemorrhage and reduced ERG ([2]; intravitreal 4 mg/0.1 ml, 25 normal rabbits): Two
eyes with decreases in ERG ([2]; intravitreal 4 mg/0.1 ml, two weeks after injection): one
time by which all aggregates disappeared ([2]; 2-mg group): 22 ± 8 days
time by which all aggregates disappeared ([2]; 4-mg group): 33 ± 7 days
inflammation in anterior or posterior segment (slit lamp biomicroscopy, indirect ophthalmoscopy) ([2]; up to 40 days of observations): did not show any evidence of significant inflammation
human equivalent dose [3]: 67 mg/eye
glucocorticoid activity, times higher than cortisol [4]: ten
MR potency [5]: 200
tolerability in a panel of animal toxicology studies [6]: well-tolerated
mineralocorticoid effect, times higher than cortisol [7]: 250 times

CC(=O)OCC(=O)[C@H]1CC[C@H]2[C@@H]3CCC4=CC(=O)CC[C@]4(C)[C@H]3CC[C@]12C [DCSA, deoxycorticosterone acetate]
aqueous solubility relative to the other compounds [8]: very low
plateau concentration in solution ([8]; 48 h): around 2 mg/mL
solubility ([8]; aqueous with cosolvent or surfactant or cyclodextrin, thermodynamic from solid): > 6000 µg/mL
stability of aqueous solution to autoclave conditions [9]: completely degraded to DCS
pH [10]: pH RGA40/3 6.0-8.0 7.0 3 Nov. 2006 Passed
stability of dry powder to gamma sterilization (drug content vs non-irradiated control) [11]: slight reduction in drug content
stability of aqueous solution to gamma irradiation [12]: completely degraded
GR potency [13]: 0
D(v, 0.5) [14]: 52 microns
D(v, 0.9) [14]: 226 microns
MR potency [5]: 20
Particle Size D(0.5) [15]: Particle RGA40/2 D(0.5) = <20 8.25 3 Nov. 2006 Passed
Particle Size D(0.9) [15]: Size D(0.9) = <30 26.77
Av Drug Content per vial [16]: Av Drug RGA40/1 20.0 ± 2.0 mg 16 ± 0.9 2 Nov. 2006 Failed•

C[C@]12CCC(=O)C=C1CC[C@@H]1[C@@H]2CC[C@@]2(C)[C@H]1CC[C@]2(O)C(=O)CO [11-DC, 11-deoxycortisol]
stability of aqueous solution to autoclave conditions [9]: stable
pH [10]: pH RGA40/3 6.0-8.0 7.0 3 Nov. 2006 Passed
initial drug content remaining after gamma irradiation [12]: less than 20%
D(v, 0.5) [14]: 81 microns
D(v, 0.9) [14]: 233 microns
Particle Size D(0.5) [15]: Particle RGA40/2 D(0.5) = <20 7.1 3 Nov. 2006 Passed
Particle Size D(0.9) [15]: Size D(0.9) = <30 25
drug concentration remaining, % of original concentration [17]: > 90%
Av Drug Content per vial [16]: Av Drug RGA40/1 20.0 ± 2.0 mg 18.4 ± 0.5 27 Oct. 2006 Passed
